Among the data in patent publication US20220289727A1, “ENZYME INHIBITORS” (KALVISTA PHARMACEUTICALS LIMITED, priority 2019, published 2022) are IC50 values, retold here.

Bounds are passed on as bounds.

Broadly, the IC50 is the midpoint of a concentration-inhibition curve. The low end stands for greater potency, the high end for weaker potency.

This assay concerns the target T1, Human Factor XIIa (Homo sapiens, UniProt P00748).
T1 construct: Human Factor XIIa (Enzyme Research Laboratories) was incubated; purchased Enzyme Research Laboratories
T1 sequence (P00748 373-615 limits assumed): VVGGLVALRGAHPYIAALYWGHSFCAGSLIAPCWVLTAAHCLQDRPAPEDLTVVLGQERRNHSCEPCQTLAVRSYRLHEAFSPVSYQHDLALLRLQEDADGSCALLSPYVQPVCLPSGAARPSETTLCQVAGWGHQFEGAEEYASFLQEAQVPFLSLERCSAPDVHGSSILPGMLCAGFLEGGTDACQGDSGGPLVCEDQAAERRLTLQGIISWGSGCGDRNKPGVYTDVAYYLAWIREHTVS
T1 sequence (P00748 20-372 partner limits assumed): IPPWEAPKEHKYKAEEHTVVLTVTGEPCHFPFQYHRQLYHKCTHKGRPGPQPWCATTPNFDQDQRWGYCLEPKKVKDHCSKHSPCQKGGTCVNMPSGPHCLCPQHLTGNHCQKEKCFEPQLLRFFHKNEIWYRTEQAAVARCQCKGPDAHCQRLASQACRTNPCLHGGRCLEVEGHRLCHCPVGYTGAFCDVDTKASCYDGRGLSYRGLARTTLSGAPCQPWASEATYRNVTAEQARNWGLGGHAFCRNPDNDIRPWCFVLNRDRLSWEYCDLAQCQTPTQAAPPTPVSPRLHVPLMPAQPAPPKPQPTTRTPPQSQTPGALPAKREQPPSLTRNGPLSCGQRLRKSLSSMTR
In words: Determination of FXIIa inhibitory activity in vitro (fluorogenic substrate H-DPro-Phe-Arg-AFC). The class given is biochemical. The settings on record: 25° C., residual enzyme activity (initial rate).
The molecule `Nc1nccc2cc(CNC(=O)c3cc(Cl)c(CN4CCC(CCN5CCCC5=O)CC4)s3)ccc12` [Example 5.13] returned an IC50 of 10 to 40 µM.

`Nc1nccc2cc(CNC(=O)c3cc(Cl)c(CN4CCC5(CC4)OCCO5)s3)ccc12` [Example 5.14] had an IC50 of 10 to 40 µM.

Consider `Nc1nccc2cc(CNC(=O)c3cc(Cl)c(CN4CCN(c5cnccn5)CC4)s3)ccc12` [Example 5.15], for which the IC50 lay within 10 to 40 µM.

As for `CS(=O)(=O)c1ccc(OCc2sc(C(=O)NCc3ccc4c(N)nccc4c3)cc2Cl)cc1` [Example 7.01], the half-inhibitory concentration (IC50) was 10 to 40 µM.

In the case of `Cn1cnc2cc(OCc3sc(C(=O)NCc4ccc5c(N)nccc5c4)cc3Cl)ccc21` [Example 7.02], the IC50 lay within 10 to 40 µM.

`Nc1nccc2cc(CNC(=O)c3cc(Cl)c(COc4ccc(N5CCNCC5)cc4)s3)ccc12` [Example 7.03, N-((1-Aminoisoquinolin-6-yl)methyl)-4-chloro-5-((4-(piperazin-1-yl)phenoxy)methyl)thiophene-2-carboxamide] came in with an IC50 of 1 to 3 µM.

Consider `CC(C)NC(=O)N(C)c1ccc(OCc2sc(C(=O)NCc3ccc4c(N)nccc4c3)cc2Cl)cc1` [Example 7.04], for which the half-inhibitory concentration (IC50) lay within 10 to 40 µM.

The molecule `Nc1nccc2cc(CNC(=O)c3cc(Cl)c(COc4cccc(N5CCNCC5)c4)s3)ccc12` [Example 7.05] gave an IC50 of 1 to 3 µM.

The molecule `Nc1nccc2cc(CNC(=O)c3cc(Cl)c(COCCN4CCOCC4)s3)ccc12` [Example 7.06] had an IC50 of 3 to 10 µM.

In the case of `Nc1nccc2cc(CNC(=O)c3cc(Cl)c(COCCN4CCCCC4)s3)ccc12` [Example 7.07], the IC50 was 3 to 10 µM.

Regarding `CN1CCC(COCc2sc(C(=O)NCc3ccc4c(N)nccc4c3)cc2Cl)CC1` [Example 7.08], the IC50 lay within 1 to 3 µM.

In the case of `Nc1nccc2cc(CNC(=O)c3cc(Cl)c(COCCN4CCS(=O)(=O)CC4)s3)ccc12` [Example 7.09], the IC50 was in the range of 3 to 10 µM.

In turn, `Nc1nccc2cc(CNC(=O)c3cc(Cl)c(COCc4ccccn4)s3)ccc12` [Example 7.10] showed an IC50 of 10 to 40 µM.

In the case of `CS(=O)(=O)c1cccc(COCc2sc(C(=O)NCc3ccc4c(N)nccc4c3)cc2Cl)c1` [Example 7.11], the IC50 lay within 10 to 40 µM.

The molecule `Nc1nccc2cc(CNC(=O)c3cc(Cl)c(COCCC4CCOCC4)s3)ccc12` [Example 7.12] yielded an IC50 of 10 to 40 µM.

The molecule `Nc1nccc2cc(CNC(=O)c3cc(Cl)c(COCC4CCOCC4)s3)ccc12` [Example 7.13] had an IC50 of 3 to 10 µM.

Molecule `Nc1nccc2cc(CNC(=O)c3cc(Cl)c(COCCN4CCCC4)s3)ccc12` [Example 7.14] registered an IC50 of 3 to 10 µM.

Molecule `CN(C)CCOCc1sc(C(=O)NCc2ccc3c(N)nccc3c2)cc1Cl` [Example 7.15] displayed an IC50 of 3 to 10 µM.

`Nc1nccc2cc(CNC(=O)c3cc(Cl)c(COCCn4ccnc4)s3)ccc12` [Example 7.16] yielded an IC50 of 3 to 10 µM.

As for `CN(CCOCc1sc(C(=O)NCc2ccc3c(N)nccc3c2)cc1Cl)Cc1ccccc1` [Example 7.17], the IC50 was in the range of 10 to 40 µM.

With `Nc1nccc2cc(CNC(=O)c3cc(Cl)c(COCC4CCN(Cc5ccccc5)CC4)s3)ccc12` [Example 7.18], the concentration for half-maximal inhibition (IC50) is 10 to 40 µM.

For `Nc1nccc2cc(CNC(=O)c3cc(Cl)c(COCc4cccnc4)s3)ccc12` [Example 7.19], the IC50 was in the range of 3 to 10 µM.

For `Nc1nccc2cc(CNC(=O)c3cc(Cl)c(COCc4ccncc4)s3)ccc12` [Example 7.20], the IC50 was in the range of 3 to 10 µM.

`Nc1nccc2cc(CNC(=O)c3cc(Cl)c(COCc4cncnc4)s3)ccc12` [Example 7.21] returned an IC50 of 3 to 10 µM.

As to `CCN(CC)CCCOCc1sc(C(=O)NCc2ccc3c(N)nccc3c2)cc1Cl` [Example 7.22], the IC50 lay within 1 to 3 µM.

On to `Nc1nccc2cc(CNC(=O)c3cc(Cl)c(COCCCN4CCCCC4)s3)ccc12` [Example 7.23], for which the IC50 fell in the range of 1 to 3 µM.

For `Nc1nccc2cc(CNC(=O)c3cc(Cl)c(COCCCc4ccncc4)s3)ccc12` [Example 7.24], the IC50 lay within 10 to 40 µM.

As for `Nc1nccc2cc(CNC(=O)c3cc(Cl)c(COCCCN4CCOCC4)s3)ccc12` [Example 7.25], the IC50 fell in the range of 3 to 10 µM.

In turn, `CN(C)CCCCOCc1sc(C(=O)NCc2ccc3c(N)nccc3c2)cc1Cl` [Example 7.26, N-((1-Aminoisoquinolin-6-yl)methyl)-4-chloro-5-((4-(dimethylamino)butoxy)methyl)thiophene-2-carboxamide] yielded an IC50 of 1 to 3 µM.

With `Cn1cc(CCCOCc2sc(C(=O)NCc3ccc4c(N)nccc4c3)cc2Cl)cn1` [Example 7.27], the IC50 lay in the range of 3 to 10 µM.

Molecule `Nc1nccc2cc(CNC(=O)c3cc(Cl)c(COCCCn4cccn4)s3)ccc12` [Example 7.28] yielded an IC50 of 10 to 40 µM.

The molecule `Nc1nccc2cc(CNC(=O)c3cc(Cl)c(COCCCc4ccccn4)s3)ccc12` [Example 7.29] came in with an IC50 of 10 to 40 µM.

On to `CN(C)c1ccc(COCc2sc(C(=O)NCc3ccc4c(N)nccc4c3)cc2Cl)cc1` [Example 7.30], for which the IC50 is 10 to 40 µM.

For the molecule `CN(C)CCCOCc1sc(C(=O)NCc2ccc3c(N)nccc3c2)cc1Cl` [Example 7.31], the IC50 was 1 to 3 µM.

As to `Nc1nccc2cc(CNC(=O)c3cc(Cl)cs3)ccc12` [Example 25.01], the IC50 lay within 10 to 40 µM.

Regarding `Cc1sc(C(=O)NCc2ccc3c(N)nccc3c2)cc1Br` [Example 25.02], the IC50 fell in the range of 3 to 10 µM.

Turning to `Nc1nccc2cc(CNC(=O)c3ccc(Cl)s3)ccc12` [Example 25.03], the IC50 is 10 to 40 µM.

Consider `Cc1sc(C(=O)NCc2ccc3c(N)nccc3c2)cc1Cl` [Example 25.04], for which the IC50 is 3 to 10 µM.

Consider `Nc1nccc2cc(CNC(=O)c3cc(Cl)c(Cc4ccccc4O)s3)ccc12` [Example 25.05], for which the IC50 was 10 to 40 µM.

The molecule `COc1ccc(O)c(Cc2sc(C(=O)NCc3ccc4c(N)nccc4c3)cc2Cl)c1` [Example 25.06] registered an IC50 of 10 to 40 µM.

`CN1CCC(CCc2sc(C(=O)NCc3ccc4c(N)nccc4c3)cc2Cl)CC1` [Example 25.11] gave an IC50 of 1 to 3 µM.

For `CN1CCC(CCc2csc(C(=O)NCc3ccc4c(N)nccc4c3)c2)CC1` [Example 25.12], the IC50 is 3 to 10 µM.

On to `Nc1nccc2cc(CNC(=O)c3cc(Br)cs3)ccc12` [Example 25.13], for which the half-inhibitory concentration (IC50) is 3 to 10 µM.

`Nc1nccc2cc(CNC(=O)c3nc(CCC4CCNCC4)cs3)ccc12` [Example 25.14] had a 50% inhibitory concentration (IC50) of 1 to 3 µM.

As to `CN1CCC(CCc2csc(C(=O)NCc3ccc4c(N)nccc4c3)n2)CC1` [Example 25.15, N-((1-Aminoisoquinolin-6-yl)methyl)-4-(2-(1-methylpiperidin-4-yl)ethyl)thiazole-2-carboxamide], the IC50 was under 1 µM.

Molecule `CN1CCC(Nc2csc(C(=O)NCc3ccc4c(N)nccc4c3)c2)CC1` [Example 25.16] gave an IC50 of 10 to 40 µM.

Consider `CN1CCC(CNc2csc(C(=O)NCc3ccc4c(N)nccc4c3)c2)CC1` [Example 25.17], for which the IC50 fell in the range of 10 to 40 µM.

`Cc1nc2[nH]ccc2c(C)c1CNC(=O)c1cc(Cl)c(C)s1` [Example 25.101, 4-Chloro-N-((4,6-dimethyl-1H-pyrrolo[2,3-b]pyridin-5-yl)methyl)-5-methylthiophene-2-carboxamide]: the IC50 was 10 to 40 µM.

The molecule `Cc1sc(C(=O)NCc2cc3c(N)nccc3s2)cc1Cl` [Example 25.103, N-((4-aminothieno[3,2-c]pyridin-2-yl)methyl)-4-chloro-5-methylthiophene-2-carboxamide] came in with an IC50 of 10 to 40 µM.

For the molecule `Cc1sc(C(=O)NCc2ccc3c(N)nccc3c2F)cc1Cl` [Example 25.104, N-((1-Amino-5-fluoroisoquinolin-6-yl)methyl)-4-chloro-5-methylthiophene-2-carboxamide], the IC50 lay within 10 to 40 µM.

On to `Cc1cc(N)nc(C)c1CNC(=O)c1cc(Cl)c(C)s1` [Example 25.105, N-[(6-Amino-2,4-dimethylpyridin-3-yl)methyl]-4-chloro-5-methylthiophene-2-carboxamide], for which the IC50 was 40 to 70 µM.

With `Nc1nccc2cc(CNC(=O)c3cc4cccc(Cl)c4s3)ccc12` [Example 25.204], the 50% inhibitory concentration (IC50) lay in the range of 10 to 40 µM.

The molecule `Nc1nccc2cc(CNC(=O)c3cc4cc(F)ccc4s3)ccc12` [Example 25.205] came in with an IC50 of 3 to 10 µM.

Turning to `Nc1nccc2cc(CNC(=O)c3cc4c(F)cccc4s3)ccc12` [Example 25.206], the IC50 fell in the range of 10 to 40 µM.

On to `CN1CCC(Nc2cccc3sc(C(=O)NCc4ccc5c(N)nccc5c4)cc23)CC1` [Example 25.208], for which the IC50 fell in the range of 3 to 10 µM.

`CN1CCC(CNc2cccc3sc(C(=O)NCc4ccc5c(N)nccc5c4)cc23)CC1` [Example 25.209]: the IC50 fell in the range of 3 to 10 µM.

In turn, `Cc1sc(C(=O)NCc2ccc3c(N)nccc3c2)c(NCC2CCN(C)CC2)c1C` [Example 26.11] registered an IC50 of 3 to 10 µM.

`Cc1cc(CCC2CCN(C)CC2)c(C(=O)NCc2ccc3c(N)nccc3c2)s1` [Example 26.12] came in with an IC50 of 3 to 10 µM.

For `CN1CCC(CNc2ccsc2C(=O)NCc2ccc3c(N)nccc3c2)CC1` [Example 26.13], the IC50 lay within 3 to 10 µM.

The molecule `Cc1nsc(C(=O)NCc2ccc3c(N)nccc3c2)c1NCC1CCNCC1` [Example 26.14] yielded an IC50 of 10 to 40 µM.

With `Cc1nsc(C(=O)NCc2ccc3c(N)nccc3c2)c1NCC1CCN(C)CC1` [Example 26.15], the IC50 lay in the range of 3 to 10 µM.
